Experimental data taken from PubChem BioAssay (NCI).
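Cultured in 96-well plates, cells were exposed to test compound for 48 hours across five concentrations. TGI denotes the concentration required for complete inhibition of growth.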

Key:
Test in all cases: NCI anticancer screen, dose series, 48 h
MDA-MB-435 = test system: MDA-MB-435
M14 melanoma = test system: M14 melanoma
HS 578T breast = test system: HS 578T breast
TK-10 renal = test system: TK-10 renal
SK-OV-3 ovarian = test system: SK-OV-3 ovarian
HOP-62 NSCLC = test system: HOP-62 NSCLC
NCI-H522 lung = test system: NCI-H522 lung
PC-3 prostate = test system: PC-3 prostate
LOX IMVI melanoma = test system: LOX IMVI melanoma
OVCAR-5 ovarian = test system: OVCAR-5 ovarian
NCI/ADR-RES ovarian = test system: NCI/ADR-RES ovarian
A498 renal = test system: A498 renal
T-47D breast = test system: T-47D breast
HCC-2998 colon = test system: HCC-2998 colon
DU-145 prostate = test system: DU-145 prostate
MCF7 breast = test system: MCF7 breast
MDA-MB-231 breast = test system: MDA-MB-231 breast
CAKI-1 renal = test system: CAKI-1 renal
SR leukemia = test system: SR leukemia
ACHN renal = test system: ACHN renal

Molecule `CC(=O)[C@]1(O)Cc2c(O)c3c(c(O)c2C(OC2OC(C)C(O)C(O)C2F)C1)C(=O)c1ccccc1C3=O` (some centres undefined) has a TGI (MDA-MB-435) of 1.95 µM, a TGI (M14 melanoma) of 1.55 µM and a TGI (HS 578T breast) of 1.62 µM. The TGI (TK-10 renal) was 71.3 µM, the TGI (SK-OV-3 ovarian) was 45.9 µM and the TGI (HOP-62 NSCLC) was 0.629 µM. The TGI (NCI-H522 lung) was 2.28 µM, the TGI (PC-3 prostate) was 3.3 µM and the TGI (LOX IMVI melanoma) was 11.6 µM. For the same molecule, the TGI (OVCAR-5 ovarian) was 1.31 µM, the TGI (NCI/ADR-RES ovarian) was 3.78 µM and the TGI (A498 renal) was 0.398 µM. The TGI (T-47D breast) was 7.8 µM, the TGI (HCC-2998 colon) was 2.3 µM and the TGI (DU-145 prostate) was 45.8 µM. It also gave a TGI (MCF7 breast) of over 45.2 µM and a TGI (MDA-MB-231 breast) of 7.21 µM.

`CC[C@]12C=CCN3CC[C@@]4(c5ccc(OC)cc5N(C)[C@H]4[C@@](O)(C(=O)OC)[C@@H]1OC(C)=O)[C@@H]32` showed a TGI (CAKI-1 renal) of over 200 µM, a TGI (SK-OV-3 ovarian) of over 200 µM and a TGI (HOP-62 NSCLC) of over 200 µM. The TGI (NCI-H522 lung) was over 200 µM, the TGI (LOX IMVI melanoma) was over 200 µM and the TGI (OVCAR-5 ovarian) was over 200 µM. The TGI (NCI/ADR-RES ovarian) was over 200 µM, the TGI (A498 renal) was over 200 µM and the TGI (HCC-2998 colon) was over 200 µM. The TGI (MCF7 breast) was over 200 µM.

`COc1ccc2c(c1)CCCc1cn[nH]c1-2` gave a TGI (CAKI-1 renal) of over 100 µM, a TGI (SK-OV-3 ovarian) of over 100 µM and a TGI (HOP-62 NSCLC) of over 100 µM. The TGI (NCI-H522 lung) was over 100 µM, the TGI (LOX IMVI melanoma) was over 100 µM and the TGI (OVCAR-5 ovarian) was over 100 µM. The TGI (NCI/ADR-RES ovarian) was over 100 µM, the TGI (A498 renal) was over 100 µM and the TGI (HCC-2998 colon) was over 100 µM. It also gave a TGI (MCF7 breast) of over 100 µM.

`O=C(NCCCNC(=O)c1ccc2cc(O)c(O)cc2c1)c1ccc2cc(O)c(O)cc2c1` gave a TGI (MDA-MB-435) of over 100 µM, a TGI (M14 melanoma) of over 100 µM and a TGI (CAKI-1 renal) of over 100 µM. It also gave a TGI (TK-10 renal) of over 100 µM, a TGI (HOP-62 NSCLC) of over 100 µM and a TGI (NCI-H522 lung) of over 100 µM. It also gave a TGI (SR leukemia) of over 100 µM, a TGI (PC-3 prostate) of over 100 µM and a TGI (LOX IMVI melanoma) of 67.4 µM. For the same molecule, the TGI (OVCAR-5 ovarian) was over 100 µM, the TGI (NCI/ADR-RES ovarian) was over 100 µM and the TGI (A498 renal) was over 100 µM. For the same molecule, the TGI (T-47D breast) was 90.6 µM, the TGI (HCC-2998 colon) was 50.9 µM and the TGI (DU-145 prostate) was 82.2 µM. For the same molecule, the TGI (MCF7 breast) was over 100 µM and the TGI (ACHN renal) was over 100 µM.

`COC(=O)C1(c2ccc(N(C)C)cc2OC)CCCN(C(=O)Oc2ccccc2[N+](=O)[O-])CCc2c1[nH]c1ccccc21` (centres undefined) showed a TGI (MDA-MB-435) of over 100 µM, a TGI (M14 melanoma) of over 100 µM and a TGI (CAKI-1 renal) of over 100 µM. For the same molecule, the TGI (HS 578T breast) was over 100 µM, the TGI (TK-10 renal) was over 100 µM and the TGI (SK-OV-3 ovarian) was over 100 µM. The TGI (HOP-62 NSCLC) was over 100 µM, the TGI (NCI-H522 lung) was over 100 µM and the TGI (SR leukemia) was over 100 µM. It also gave a TGI (PC-3 prostate) of over 100 µM, a TGI (LOX IMVI melanoma) of over 100 µM and a TGI (OVCAR-5 ovarian) of over 100 µM. The TGI (NCI/ADR-RES ovarian) was over 100 µM, the TGI (A498 renal) was over 100 µM and the TGI (T-47D breast) was over 100 µM. For the same molecule, the TGI (HCC-2998 colon) was over 100 µM, the TGI (DU-145 prostate) was over 100 µM and the TGI (MCF7 breast) was over 100 µM. It also gave a TGI (MDA-MB-231 breast) of over 100 µM.

`CC(C(=O)O)c1cnn(-c2ccccc2)c1-n1cccc1` (centres undefined) showed a TGI (CAKI-1 renal) of over 100 µM, a TGI (SK-OV-3 ovarian) of over 100 µM and a TGI (HOP-62 NSCLC) of over 100 µM. The TGI (NCI-H522 lung) was over 100 µM, the TGI (LOX IMVI melanoma) was over 100 µM and the TGI (OVCAR-5 ovarian) was over 100 µM. For the same molecule, the TGI (NCI/ADR-RES ovarian) was over 100 µM, the TGI (A498 renal) was over 100 µM and the TGI (HCC-2998 colon) was over 100 µM. For the same molecule, the TGI (MCF7 breast) was over 100 µM.

`C=CCNc1ccc(C)cc1` was tested, and the TGI (MDA-MB-435) was over 100 µM, the TGI (M14 melanoma) was over 100 µM and the TGI (HS 578T breast) was over 100 µM. It also gave a TGI (TK-10 renal) of over 100 µM, a TGI (NCI-H522 lung) of over 100 µM and a TGI (SR leukemia) of over 100 µM. For the same molecule, the TGI (PC-3 prostate) was over 100 µM, the TGI (LOX IMVI melanoma) was over 100 µM and the TGI (NCI/ADR-RES ovarian) was over 100 µM. For the same molecule, the TGI (A498 renal) was 30.7 µM, the TGI (T-47D breast) was over 100 µM and the TGI (HCC-2998 colon) was over 100 µM. It also gave a TGI (DU-145 prostate) of over 100 µM, a TGI (MCF7 breast) of over 100 µM and a TGI (ACHN renal) of over 100 µM. The TGI (MDA-MB-231 breast) was over 100 µM.

For `CCOCNC(=O)N(COCC)COCC`, the TGI (M14 melanoma) was over 100 µM, the TGI (CAKI-1 renal) was over 100 µM and the TGI (SK-OV-3 ovarian) was over 100 µM. For the same molecule, the TGI (HOP-62 NSCLC) was over 100 µM, the TGI (NCI-H522 lung) was over 100 µM and the TGI (LOX IMVI melanoma) was over 100 µM. The TGI (OVCAR-5 ovarian) was over 100 µM, the TGI (A498 renal) was over 100 µM and the TGI (HCC-2998 colon) was over 100 µM. For the same molecule, the TGI (ACHN renal) was over 100 µM.

Work on `O=[N+]([O-])c1ccccc1N=Nc1c(O)sc2ccccc12` yielded a TGI (MDA-MB-435) of over 100 µM, a TGI (M14 melanoma) of over 100 µM and a TGI (CAKI-1 renal) of over 100 µM. The TGI (HS 578T breast) was over 100 µM, the TGI (TK-10 renal) was over 100 µM and the TGI (SK-OV-3 ovarian) was over 100 µM. It also gave a TGI (HOP-62 NSCLC) of over 100 µM, a TGI (NCI-H522 lung) of over 100 µM and a TGI (SR leukemia) of over 100 µM. It also gave a TGI (PC-3 prostate) of over 100 µM, a TGI (LOX IMVI melanoma) of over 100 µM and a TGI (OVCAR-5 ovarian) of over 100 µM. It also gave a TGI (A498 renal) of over 100 µM, a TGI (T-47D breast) of over 100 µM and a TGI (HCC-2998 colon) of over 100 µM. For the same molecule, the TGI (DU-145 prostate) was over 100 µM, the TGI (MCF7 breast) was over 100 µM and the TGI (ACHN renal) was over 100 µM.

`NCCc1nc(-c2nc(C(=O)O)cs2)cs1` was tested, and the TGI (MDA-MB-435) was over 100 µM, the TGI (M14 melanoma) was over 100 µM and the TGI (CAKI-1 renal) was over 100 µM. The TGI (HS 578T breast) was over 100 µM, the TGI (TK-10 renal) was over 100 µM and the TGI (SK-OV-3 ovarian) was over 100 µM. It also gave a TGI (HOP-62 NSCLC) of over 100 µM, a TGI (NCI-H522 lung) of over 100 µM and a TGI (SR leukemia) of over 100 µM. The TGI (PC-3 prostate) was over 100 µM, the TGI (LOX IMVI melanoma) was over 100 µM and the TGI (OVCAR-5 ovarian) was over 100 µM. It also gave a TGI (NCI/ADR-RES ovarian) of over 100 µM, a TGI (A498 renal) of over 100 µM and a TGI (T-47D breast) of over 100 µM. It also gave a TGI (DU-145 prostate) of over 100 µM, a TGI (MCF7 breast) of over 100 µM and a TGI (ACHN renal) of over 100 µM. For the same molecule, the TGI (MDA-MB-231 breast) was over 100 µM.

Work on `COc1ccc(-c2c(C#N)c(NC(=S)NC(=O)c3ccccc3)nc3c2CCCC3)cc1OC` yielded a TGI (MDA-MB-435) of over 100 µM, a TGI (M14 melanoma) of over 100 µM and a TGI (CAKI-1 renal) of over 100 µM. The TGI (HS 578T breast) was over 100 µM, the TGI (TK-10 renal) was over 100 µM and the TGI (SK-OV-3 ovarian) was over 100 µM. The TGI (HOP-62 NSCLC) was over 100 µM, the TGI (SR leukemia) was over 100 µM and the TGI (PC-3 prostate) was over 100 µM. The TGI (LOX IMVI melanoma) was over 100 µM, the TGI (OVCAR-5 ovarian) was over 100 µM and the TGI (NCI/ADR-RES ovarian) was over 100 µM. The TGI (T-47D breast) was 89 µM, the TGI (DU-145 prostate) was over 100 µM and the TGI (MCF7 breast) was over 100 µM. It also gave a TGI (ACHN renal) of over 100 µM and a TGI (MDA-MB-231 breast) of over 100 µM.

Molecule `CN(CCCNc1ccc2ncn3c4ccccc4c(=O)c1c23)CCCN1C(=O)c2cccc3cc([N+](=O)[O-])cc(c23)C1=O` has a TGI (MDA-MB-435) of 2.13 µM, a TGI (M14 melanoma) of 1.69 µM and a TGI (CAKI-1 renal) of 2 µM. It also gave a TGI (HS 578T breast) of 2.42 µM, a TGI (TK-10 renal) of 0.156 µM and a TGI (SK-OV-3 ovarian) of 2.69 µM. It also gave a TGI (HOP-62 NSCLC) of 2.15 µM, a TGI (NCI-H522 lung) of 1.48 µM and a TGI (OVCAR-5 ovarian) of 2.35 µM. The TGI (NCI/ADR-RES ovarian) was 1.69 µM, the TGI (A498 renal) was 4.53 µM and the TGI (T-47D breast) was 3.42 µM. For the same molecule, the TGI (HCC-2998 colon) was 0.0916 µM, the TGI (MCF7 breast) was 0.114 µM and the TGI (ACHN renal) was 1.21 µM. It also gave a TGI (MDA-MB-231 breast) of 1.26 µM.
